Measured values as given in patent publication US20260256792A1, “TREATMENT OF CHRONIC SPONTANEOUS URTICARIA BY ADMINISTERING (R)-2-[3-[4-AMINO-3-(2-FLUORO-4-PHENOXY-PHENYL)PYRAZOLO[3,4-D]PYRIMIDIN-1-YL]PIPERIDINE-1-CARBONYL]-4-METHYL-4-[4-(OXETAN-3-YL)PIPERAZIN-1-YL]PENT-2-ENENITRILE” (priority 2023, published 2026).

Test system: moderate-to-severe chronic spontaneous urticaria (CSU)
Assay: Phase 2 CSU study: urticaria activity score over 7 days (UAS7)
Assay type: in vivo, human
Design: key to UAS7 Median / UAS7 Change from baseline Median / UAS7 change from baseline, Q1 / UAS7 change from baseline, Q3 / UAS7 change from baseline, Max / UAS7 Change from baseline LS Mean (SE): UAS7 points; daily UAS score ranges 0–6 points/day, over 7 days
Description: The study comprises a 12 week, randomized, double-blind, placebo-controlled, multi-center, dose-ranging efficacy and safety phase, followed by a 40 week open label extension (OLE) phase (see FIG. 1). The study consists of three phases and an optional OLE phase. […] Clinically, CSU is characterized by the spontaneous and recurrent appearance of pruritic hives. The proposed primary endpoints were the UAS7 at Week 12 in EU and EU reference countries and the ISS7 in the US. Regardless of where a participant was from, all assessments were the same. The UAS7 score is a composite score containing both the HSS7 and the ISS7. This allowed a global assessment of the two key components of urticaria: hives and itch. […] The UAS is a validated PRO measure. […] The daily UAS scores range from 0 to 6 point/day. […] Patients were to complete the UAS using the e-diary. […] The following secondary endpoints were to be analyzed using the same approach as for the primary endpoint: • Change from baseline in UAS7 at Week 4 • Change from baseline in UAS7 at Week 12 (for US and US reference countries) • Change from baseline in ISS7 at Week 12 (except US and US reference countries) • Change from baseline in HSS7 at Week 12 The following responder secondary endpoints were to be analyzed using the Cochran-Mantel-Haenszel test adjusted by region: • Proportion of participants with UAS7<6 at Week 12 • Proportion of participants with UAS7=0 at Week 12 Participants who received selected prohibited medications and/or rescue medications were to be considered as non-responders for time points after the medication usage. For other participants, all available data including those collected during the off-treatment period were to be used to determine the responder/non-responder status. Missing data were to be considered as non-responders.

[1] = Week 1, 400 mg QPM, Prior Omalizumab Use
[2] = Week 1, 400 mg QPM, omalizumab-naive participants
[3] = Week 1, 400 mg TID, ITT population
[4] = Week 1, 400 mg TID, Omalizumab-Naïve
[5] = Week 1, 400 mg TID, Prior Omalizumab Use
[6] = Week 1, 400 mg TID, omalizumab-naive participants
[7] = Week 2, 400 mg BID, ITT population
[8] = Week 2, 400 mg BID, Omalizumab-Naïve
[9] = Week 2, 400 mg BID, Prior Omalizumab Use
[10] = Week 2, 400 mg BID, omalizumab-naive participants
[11] = Week 2, 400 mg QPM, ITT population
[12] = Week 2, 400 mg QPM, Omalizumab-Naïve
[13] = Week 2, 400 mg QPM, Prior Omalizumab Use
[14] = Week 2, 400 mg QPM, omalizumab-naive participants

CC(C)(C=C(C#N)C(=O)N1CCC[C@@H](n2nc(-c3ccc(Oc4ccccc4)cc3F)c3c(N)ncnc32)C1)N1CCN(C2COC2)CC1 [rilzabrutinib, (R)-2-[3-[4-amino-3-(2-fluoro-4-phenoxy-phenyl)pyrazolo[3,4-d]pyrimidin-1-yl]piperidine-1-carbonyl]-4-methyl-4-[4-(oxetan-3-yl)piperazin-1-yl]pent-2-enenitrile]
UAS7 Percent change from baseline Mean (SD) [1]: −39.02 (NC) %
UAS7 Percent change from baseline Median [1]: −39.02%
Non-responder, UAS7 reduction from baseline of 10 points or more [2]: 26 (70.3) n (%)
OR for rilzabrutinib vs. placebo, UAS7 reduction of 10 points or more [2]: 1.510
RRD (%) for rilzabrutinib vs. placebo, UAS7 reduction of 10 points or more [2]: 8.2 %
Responder, UAS7 reduction from baseline of 10 points or more [2]: 11 (29.7) n (%)
Non-responder, UAS7 reduction from baseline of 10 points or more [3]: 18 (43.9) n (%)
OR for rilzabrutinib vs. placebo, UAS7 reduction of 10 points or more [3]: 4.196
RRD (%) for rilzabrutinib vs. placebo, UAS7 reduction of 10 points or more [3]: 32.5 %
Responder, UAS7 reduction from baseline of 10 points or more [3]: 23 (56.1) n (%)
UAS7 Change from baseline Mean (SD) [4]: −11.57 (10.61)
UAS7 Change from baseline Median [4]: −10.00
UAS7 Mean (SD) [4]: 17.77 (10.26)
UAS7 Median [4]: 18.00
UAS7 Percent change from baseline Mean (SD) [4]: −38.05 (33.56) %
UAS7 Percent change from baseline Median [4]: −30.95%
UAS7 Change from baseline Mean (SD) [5]: −20.86 (9.80)
UAS7 Change from baseline Median [5]: −21.00
UAS7 Mean (SD) [5]: 12.17 (8.54)
UAS7 Percent change from baseline Mean (SD) [5]: −63.75 (22.12) %
UAS7 Percent change from baseline Median [5]: −69.05%
Non-responder, UAS7 reduction from baseline of 10 points or more [6]: 17 (48.6) n (%)
OR for rilzabrutinib vs. placebo, UAS7 reduction of 10 points or more [6]: 3.580
RRD (%) for rilzabrutinib vs. placebo, UAS7 reduction of 10 points or more [6]: 28.5 %
Responder, UAS7 reduction from baseline of 10 points or more [6]: 18 (51.4) n (%)
Non-responder, UAS7 reduction from baseline of 10 points or more [7]: 19 (46.3) n (%)
OR for rilzabrutinib vs. placebo, UAS7 reduction of 10 points or more [7]: 3.388
RRD (%) for rilzabrutinib vs. placebo, UAS7 reduction of 10 points or more [7]: 27.8 %
Responder, UAS7 reduction from baseline of 10 points or more [7]: 22 (53.7) n (%)
UAS7 Change from baseline Mean (SD) [8]: −10.10 (8.61)
UAS7 Change from baseline Median [8]: −10.00
UAS7 Mean (SD) [8]: 19.59 (10.86)
UAS7 Median [8]: 18.10
UAS7 Percent change from baseline Mean (SD) [8]: −35.50 (31.03) %
UAS7 Percent change from baseline Median [8]: −35.71%
UAS7 Change from baseline Mean (SD) [9]: −14.00 (14.98)
UAS7 Change from baseline Median [9]: −10.00
UAS7 Mean (SD) [9]: 19.00 (13.67)
UAS7 Median [9]: 23.00
UAS7 Percent change from baseline Mean (SD) [9]: −40.50 (43.43) %
UAS7 Percent change from baseline Median [9]: −27.44%
Non-responder, UAS7 reduction from baseline of 10 points or more [10]: 17 (48.6) n (%)
OR for rilzabrutinib vs. placebo, UAS7 reduction of 10 points or more [10]: 3.686
RRD (%) for rilzabrutinib vs. placebo, UAS7 reduction of 10 points or more [10]: 28.9 %
Responder, UAS7 reduction from baseline of 10 points or more [10]: 18 (51.4) n (%)
Non-responder, UAS7 reduction from baseline of 10 points or more [11]: 23 (60.5) n (%)
OR for rilzabrutinib vs. placebo, UAS7 reduction of 10 points or more [11]: 2.169
RRD (%) for rilzabrutinib vs. placebo, UAS7 reduction of 10 points or more [11]: 16.6 %
Responder, UAS7 reduction from baseline of 10 points or more [11]: 15 (39.5) n (%)
UAS7 Change from baseline Mean (SD) [12]: −7.67 (8.84)
UAS7 Change from baseline Median [12]: −5.00
UAS7 Mean (SD) [12]: 23.44 (8.97)
UAS7 Median [12]: 23.00
UAS7 Percent change from baseline Mean (SD) [12]: −23.23 (26.34) %
UAS7 Percent change from baseline Median [12]: −16.67%
UAS7 Change from baseline Mean (SD) [13]: −19.00 (NC)
UAS7 Change from baseline Median [13]: −19.00
UAS7 Mean (SD) [13]: 22.00 (NC)
UAS7 Median [13]: 22.00
UAS7 Percent change from baseline Mean (SD) [13]: −46.34 (NC) %
UAS7 Percent change from baseline Median [13]: −46.34%
Non-responder, UAS7 reduction from baseline of 10 points or more [14]: 23 (62.2) n (%)
OR for rilzabrutinib vs. placebo, UAS7 reduction of 10 points or more [14]: 2.174
RRD (%) for rilzabrutinib vs. placebo, UAS7 reduction of 10 points or more [14]: 16.6 %
Responder, UAS7 reduction from baseline of 10 points or more [14]: 14 (37.8) n (%)
Non-responder, UAS7 reduction from baseline of 10 points or more (Week 2, 400 mg TID, ITT population): 13 (31.7) n (%)
